According to patent US20160106814A1, “Novel Oral Pharmaceutical Composition for Treatment of Diabetes” (NOVO NORDISK A/S, priority 2013, published 2016):
*1 amine or outer side, *2 acyl side, *3 side chain or, on linkers, in order; H or OH if unused. Where a SMILES comes first, the peptide text is derived from it. Bridges are numbered along the chain shown (N, C = ends). Roman numbers before positions name the chains, in order. Side-chain parts run from the residue outwards. [ ]: non-standard residue; d: D form. The star is where a group is joined. Decanoyl(10-(4-HOOC-PhO)) = O=C(O)c1ccc(OCCCCCCCCCC(=O)*)cc1; C18 diacid = O=C(O)CCCCCCCCCCCCCCCCC(=O)*; NMe2Phe = CN(C)[C@@H](Cc1ccccc1)C(=O)*; γGlu = O=C(O)[C@H](CCC(=O)[*:2])N[*:1]; AEEA = NCCOCCOCC(=O)O; Me2Gly = CN(C)CC(=O)*; Aib = CC(C)(N)C(=O)O

How the values were obtained:
[1] = Transport of GLP-1 peptide across mucus-producing E12 cell monolayers in the presence of sodium caprate and BBI; format: in vitro ADME; details: for Papp A→B at 100 µM: human
Procedure: Buffer was then removed and the experiment initiated. […] Receiver samples (200 μl) were taken every 15 min.
In all samples with GLP-1 peptide and mannitol, the concentration of GLP-1 peptide was determined using a LOCI assay (or LC-MS assay) and scintillation counter, respectively.

[2] = Insulin peptide degradation by GI extracts in presence of BBI; format: in vitro ADME, Sprague Dawley rats; details: rat; for half-life at 10 µM: male, Sprague Dawley, real gastrointestinal fluid or homogenate
Procedure: 96 well plates were coated by incubating with 0.4% BSA solution for minimum of 60 min. […] The plates were pre-incubated (before adding GI juice) for 60 min at 37° C. After addition of 30 μl of GI juice, the plates were incubated for 60 min/37° C. on shaker. Samples (40 μl) were taken at 0, 3, 6, 10, 30 and 60 min, stopped with 3 vol. cold 96% EtOH (ethanol) w. 1% HCOOH (formic acid) and centrifuged (4500 rcf for 10 min at 4° C.). The resulting supernatant from the samples were diluted 5 times with the buffer prior to LC-MS analysis. Standard samples (0.1, 0.5, 1.0, 5.0, 10.0 μM) were prepared and treated as the samples. Standard curve was analysed both at the beginning and the end of the sequence. Two replicates of each tested conditions were included. […] The results were plotted against the incubation time. […] GI juice was prepared from male Sprague Dawley rats (200-250 g) by excising approximately 20 cm piece of mid jejunum and rinsing the inside with 2.5 ml 0.9% sodium chloride solution. The sodium chloride solution was collected in a centrifuge tube, pooled from all rats (20) and centrifuged at 4500 rpm./10 min/4° C. The supernatant was aliquoted in tubes and stored at −80° C.

[3] = GLP-1 peptide degradation by GI extracts in presence of BBI; format: in vitro ADME, Sprague Dawley rats; details: half-life with 0.1% BBI divided by half-life without BBI, rat GI juice
Procedure: 96 well plates were coated by incubating with 0.4% BSA solution for a minimum of 60 min. To each well, 210 μl of buffer (HBSS-HEPES buffer with 0.005% Tween 20 and 0.005% BSA, pH 6.5), 30 μl of a substrate (100 μM GLP-1 peptide in buffer) and 30 μl of BBI (1%) were added. The plates were pre-incubated (before adding GI juice) for 60 min at 37° C. After addition of 30 μl of GI juice, the plates were incubated for 60 min/37° C. on shaker. Samples (40 μl) were taken at 0, 3, 6, 10, 30 and 60 min, stopped with 3 vol. cold 96% EtOH w. 1% HCOOH and centrifuged (4500 rcf for 10 min at 4° C.). The resulting supernatant from the samples were diluted 5 times with the buffer prior to LC-MS analysis. Standard samples (0.1, 0.5, 1.0, 5.0, 10.0 μM) were prepared and treated as the samples. Standard curve was analysed both at the beginning and the end of the sequence. Two replicates of each tested conditions were included. Intact GLP-1 peptide was determined in each sample. The results were plotted against the incubation time. Half-lives of the GLP-1 peptide was determined by nonlinear regression of the results using, for example Graph Pad Prism. The half-lives were expressed relative to the half-life of the GLP-1 peptide without BBI present by dividing the half-lives obtained in the presence of inhibitor with those obtained in the absence of BBI. […]

[4] = pH 7.4, apical to basolateral, 100 μM GLP-1 peptide + 13 mM sodium caprate + 0.2% BBI
[5] = pH 7.4, apical to basolateral, 100 μM GLP-1 peptide + 13 mM sodium caprate, without BBI

CC[C@H](C)[C@H](NC(=O)[C@H](Cc1ccccc1)NC(=O)[C@H](CCC(=O)O)NC(=O)[C@H](CCCCNC(=O)COCCOCCNC(=O)COCCOCCNC(=O)CC[C@H](NC(=O)CCCCCCCCCOc1ccc(C(=O)O)cc1)C(=O)O)NC(=O)[C@H](C)NC(=O)[C@H](C)NC(=O)[C@H](CCC(N)=O)NC(=O)CNC(=O)[C@H](CCC(=O)O)NC(=O)[C@H](CC(C)C)NC(=O)[C@H](Cc1ccc(O)cc1)NC(=O)[C@H](CCCCNC(=O)COCCOCCNC(=O)COCCOCCNC(=O)CC[C@H](NC(=O)CCCCCCCCCOc1ccc(C(=O)O)cc1)C(=O)O)NC(=O)[C@H](CO)NC(=O)[C@@H](NC(=O)[C@H](CC(=O)O)NC(=O)[C@H](CO)NC(=O)[C@@H](NC(=O)[C@H](Cc1ccccc1)NC(=O)[C@@H](NC(=O)CNC(=O)[C@H](CCC(=O)O)NC(=O)C(C)(C)NC(=O)[C@@H](N)Cc1c[nH]cn1)[C@@H](C)O)[C@@H](C)O)C(C)C)C(=O)N[C@@H](C)C(=O)N[C@@H](Cc1c[nH]c2ccccc12)C(=O)N[C@@H](CC(C)C)C(=O)N[C@H](C(=O)N[C@@H](CCC(N)=O)C(=O)NCC(=O)N[C@@H](CCCNC(=N)N)C(=O)NCC(=O)O)C(C)C [GLP-1 peptide 6, N{Epsilon-18}-[2-[2-[2-[[2-[2-[2-[[(4S)-4-carboxy-4-[10-(4-carboxyphenoxy)-decanoylamino]butanoyl]amino]ethoxy]ethoxy]acetyl]amino]ethoxy]ethoxy]acetyl], N{Epsilon-26}-[2-[2-[2-[[2-[2-[2-[[(4S)-4-carboxy-4-[10-(4-carboxyphenoxy)decanoylamino]butanoyl]-amino]ethoxy]ethoxy]acetyl]amino]ethoxy]ethoxy]acetyl]-[Aib8,Lys18,Gln34]-GLP-1-(7-37)-peptide]
Papp A→B [1, 4]: 0.296 ×10⁻⁶ cm/s
Papp A→B [1, 5]: 0.159 ×10⁻⁶ cm/s

CC[C@H](C)[C@H](NC(=O)[C@H](Cc1ccccc1)NC(=O)[C@H](CCC(=O)O)NC(=O)[C@H](CCCCNC(=O)COCCOCCNC(=O)COCCOCCNC(=O)CC[C@H](NC(=O)CCCCCCCCCOc1ccc(C(=O)O)cc1)C(=O)O)NC(=O)[C@H](C)NC(=O)[C@H](C)NC(=O)[C@H](CCC(N)=O)NC(=O)[C@H](CCC(=O)O)NC(=O)[C@H](CCC(=O)O)NC(=O)[C@H](CC(C)C)NC(=O)[C@H](Cc1ccc(O)cc1)NC(=O)[C@H](CCCCNC(=O)COCCOCCNC(=O)COCCOCCNC(=O)CC[C@H](NC(=O)CCCCCCCCCOc1ccc(C(=O)O)cc1)C(=O)O)NC(=O)[C@H](CO)NC(=O)[C@@H](NC(=O)[C@H](CC(=O)O)NC(=O)[C@H](CO)NC(=O)[C@@H](NC(=O)[C@H](Cc1ccccc1)NC(=O)[C@@H](NC(=O)CNC(=O)[C@H](CCC(=O)O)NC(=O)C(C)(C)NC(=O)[C@@H](N)Cc1c[nH]cn1)[C@@H](C)O)[C@@H](C)O)C(C)C)C(=O)N[C@@H](C)C(=O)N[C@@H](Cc1c[nH]c2ccccc12)C(=O)N[C@@H](CC(C)C)C(=O)N[C@H](C(=O)N[C@@H](CCCNC(=N)N)C(=O)NCC(=O)N[C@@H](CCCNC(=N)N)C(=O)NCC(=O)O)C(C)C [GLP-1 peptide 4, N{Epsilon-18}-[2-[2-[2-[[2-[2-[2-[[(4S)-4-carboxy-4-[10-(4-carboxyphenoxy)-decanoylamino]butanoyl]amino]ethoxy]ethoxy]acetyl]amino]ethoxy]ethoxy]acetyl], N{Epsilon-26}-[2-[2-[2-[[2-[2-[2-[[(4S)-4-carboxy-4-[10-(4-carboxyphenoxy)decanoylamino]butanoyl]-amino]ethoxy]ethoxy]acetyl]amino]ethoxy]ethoxy]acetyl]-[Aib8,Lys18,Glu22,Arg34]-GLP-1-(7-37)-peptide] (H-H[Aib]EGTFTSDVSK([AEEA-AEEA-γGlu-Decanoyl(10-(4-HOOC-PhO))])YLEEQAAK([AEEA-AEEA-γGlu-Decanoyl(10-(4-HOOC-PhO))])EFIAWLVRGRG-OH)
Papp A→B [1, 4]: 0.529 ×10⁻⁶ cm/s
Papp A→B [1, 5]: 0.204 ×10⁻⁶ cm/s

I: NMe2Phe-VNQHLCGSHLVEALYLVCGERGFHYTPK([AEEA-AEEA-γGlu-C18 diacid])-OH / II: Me2Gly-IVEQCCTSICSLEQLENYCN-OH (disulfide I:6-II:6, I:18-II:19, II:5-II:10) [Insulin 2, N{A1},N{A1}-dimethyl,N{B1},N{B1}-dimethyl,N{Epsilon-B29}-[2-[2-[2-[[2-[2-[2-[[(4S)-4-carboxy-4-(17-carboxyheptadecanoylamino)butanoyl]amino]ethoxy]ethoxy]acetyl]amino]-ethoxy]ethoxy]acetyl]-[GluA14,HisB25],des-ThrB30-Insulin(human)]
half-life at 10 µM ([2]; pH 6.5, Half Life of insulin peptide): 1.1 min
half-life at 10 µM ([2]; pH 6.5, Half Life of insulin peptide in presence of 0.1% BBI): > 1000 min
Half Life (fold increase) [2]: >910 fold

CC[C@H](C)[C@H](NC(=O)[C@H](Cc1ccccc1)NC(=O)[C@H](CCC(=O)O)NC(=O)[C@H](CCCCNC(=O)COCCOCCNC(=O)COCCOCCNC(=O)CC[C@H](NC(=O)CCCCCCCCCCCCCCCCC(=O)O)C(=O)O)NC(=O)[C@H](C)NC(=O)[C@H](C)NC(=O)[C@H](CCC(N)=O)NC(=O)CNC(=O)[C@H](CCC(=O)O)NC(=O)[C@H](CC(C)C)NC(=O)[C@H](Cc1ccc(O)cc1)NC(=O)[C@H](CO)NC(=O)[C@H](CO)NC(=O)[C@@H](NC(=O)[C@H](CC(=O)O)NC(=O)[C@H](CO)NC(=O)[C@@H](NC(=O)[C@H](Cc1ccccc1)NC(=O)[C@@H](NC(=O)CNC(=O)[C@H](CCC(=O)O)NC(=O)C(C)(C)NC(=O)[C@@H](N)Cc1cnc[nH]1)[C@@H](C)O)[C@@H](C)O)C(C)C)C(=O)N[C@@H](C)C(=O)N[C@@H](Cc1c[nH]c2ccccc12)C(=O)N[C@@H](CC(C)C)C(=O)N[C@H](C(=O)N[C@@H](CCCNC(=N)N)C(=O)NCC(=O)N[C@@H](CCCNC(=N)N)C(=O)NCC(=O)O)C(C)C [GLP-1 peptide 1, N{Epsilon-26}-[2-[2-[2-[[2-[2-[2-[[(4S)-4-carboxy-4-(17-carboxy-heptadecanoylamino)butanoyl]amino]ethoxy]ethoxy]acetyl]amino]ethoxy]ethoxy]acetyl]-[Aib8,Arg34]-GLP-1-(7-37)-peptide]
Half Life (fold increase) [3]: >15 fold
Papp A→B at 100 µM [1, 5]: 0.148 ×10⁻⁶ cm/s
Papp A→B at 100 µM ([1]; pH 7.4, with Bowman Birk inhibitor (BBI) 0.2%, apical to basolateral, 100 μM GLP-1 peptide + 13 mM sodium caprate + 0.2% BBI): 0.319 ×10⁻⁶ cm/s
